Laboratory results published in patent publication US20240360114A1 (SIRONAX LTD., priority 2021, published 2024).

Test system: HT-1080 cells
Assay: HT-1080 cell viability assay (ferroptosis induced by RSL3, Cell Titer-Glo)
Format: cell-based
Conditions: ferroptosis inducer RSL3, 20 hours, ferroptosis inhibitory activity, Table 2
Protocol: Example 2. Determination of EC50 Values in HT-1080 Cell Viability Assay
HT-1080 (ATCC, CCL-121) cells (6000 in 100 μl) were seeded in 96-well plates (Corning) and cultured in a 37° C. incubator with a humidified atmosphere of 5% CO2 for overnight. Cells were then treated with ferroptosis inducer RSL3 (TargetMol) and a 3-fold, 10-point serial dilution series of compounds with 1.1 μM as the highest concentration, for 20 hours. Cell viability was assessed using the Cell Titer-Glo Kit (Promega). The luminescence intensity was measured with a microplate reader (Envision, PerkinElmer), and cell viability was calculated by normalizing the data to untreated controls. The EC50 values of the compounds (e.g., Compounds 1-573 and 574-661) were calculated in GraphPad Prism (GraphPad Software, Inc., San Diego, CA, USA). The curves were fitted using a non-linear regression model with a sigmoidal dose response.

EC50 (Homo sapiens, HT-1080, 20 h) | Compound | other results
1000 to 10000 nM | NC1CCC(Nc2ncc(N3CCC(C(F)(F)F)CC3)cn2)CC1 (single isomer, unassigned) [Compound 64A] | –
0.1 to 100 nM | Cc1nc(N2CCC(C(F)(F)F)CC2)ncc1NC1CCC(N)CC1 (single isomer, unassigned) [Compound 65A, N1-(4-methyl-2-(4-(trifluoromethyl)piperidin-1-yl)pyrimidin-5-yl)cyclohexane-1,4-diamine] | –
0.1 to 100 nM | NCC1CCC(Nc2ccc(C3CCCCC3)cc2)CC1 (single isomer, unassigned) [Compound 82A, N-(4-(aminomethyl)cyclohexyl)-4-cyclohexylaniline] | –
0.1 to 100 nM | CC1(C)CCC(c2ccc(NC3CCC(N)CC3)cc2)CC1 (single isomer, unassigned) [Compound 120A, N1-(4-(4,4-dimethylcyclohexyl)phenyl)cyclohexane-1,4-diamine] | –
0.1 to 100 nM | CC1(C)CCC(c2ccc(NC3CCC(N)C3)cc2)CC1 (single isomer, unassigned) [Compound 121A, N1-(4-(4,4-dimethylcyclohexyl)phenyl)cyclopentane-1,3-diamine] | –
100 to 1000 nM | CCCc1ccc(NC2CCC(N)CC2)cc1 (single isomer, unassigned) [Compound 135A, N1-(4-propylphenyl)cyclohexane-1,4-diamine] | –
0.1 to 100 nM | NC1CCC(Nc2ccc(C3CCCC3)cc2)CC1 (single isomer, unassigned) [Compound 139A, N1-(4-cyclopentylphenyl)cyclohexane-1,4-diamine] | –
100 to 1000 nM | CC(C)(C)c1cccc(NC2CCC(N)CC2)c1 (single isomer, unassigned) [Compound 153A, N1-(3-(tert-butyl)phenyl)cyclohexane-1,4-diamine] | –
100 to 1000 nM | Cc1cc(NC2CCC(N)CC2)cc(C)c1C (single isomer, unassigned) [Compound 182A, N1-(3,4,5-trimethylphenyl)cyclohexane-1,4-diamine] | –
1000 to 10000 nM | CC(C)(C)c1ccc(NC2CCC(N)CC2)c(Cl)c1 (single isomer, unassigned) [Compound 183A, N1-(4-(tert-butyl)-2-chlorophenyl)cyclohexane-1,4-diamine] | –
1000 to 10000 nM | NC1CCC(Nc2cccc3c2CCC3)CC1 (single isomer, unassigned) [Compound 191A, N1-(2,3-dihydro-1H-inden-4-yl)cyclohexane-1,4-diamine] | –

Further lines, the compound ahead of its results:

Compound | EC50 (Homo sapiens, HT-1080, 20 h) | other results
CC1(C)CCC(c2ccc(NC3CCC(NC(=O)[C@H]4CNC(=O)N4)C3)cc2)CC1 (mixture of isomers) [Compound 155] | 0.1 to 100 nM | –
CN(C)C1CCC(NC(=O)C2CCC(Nc3ccc(C4CCC(C)(C)CC4)cc3)CC2)CC1 (single isomer, unassigned) [Compound 76A, (4-(dimethylamino)cyclohexyl)-4-((4-(4,4-dimethylcyclohexyl)phenyl)amino)cyclohexane-1-carboxamide] | 0.1 to 100 nM | –
CCC(CC)c1ccc(NC2CCC(CN)CC2)cc1 (single isomer, unassigned) [Compound 81A, N-(4-(aminomethyl)cyclohexyl)-4-(pentan-3-yl)aniline] | 100 to 1000 nM | –
CN(C)C1CCC(Nc2ccc(C3CCC(C)(C)CC3)cc2)CC1 (single isomer, unassigned) [Compound 91A, N1-(4-(4,4-dimethylcyclohexyl)phenyl)-N4,N4-dimethylcyclohexane-1,4-diamine] | 0.1 to 100 nM | –
NCC1CCC(Nc2ccccc2)CC1 (single isomer, unassigned) [Compound 92A, N-(4-(aminomethyl)cyclohexyl)aniline] | – | EC50: 1000 to 10000 nM
NCC1CCC(Nc2ccccc2)CC1 (single isomer, unassigned) [Compound 92B, N-(4-(aminomethyl)cyclohexyl)aniline] | – | EC50: 100 to 1000 nM
CN(C)CC1CCC(Nc2ccc(C3CCC(C)(C)CC3)cc2)CC1 (single isomer, unassigned) [Compound 97A, N-(4-((dimethylamino)methyl)cyclohexyl)-4-(4,4-dimethylcyclohexyl)aniline] | 0.1 to 100 nM | –
CC1(C)CCC(c2ccc(NC3CCC(CNC(=O)C4CNC(=O)C4)CC3)cc2)CC1 (single isomer, unassigned) [Compound 106A] | 0.1 to 100 nM | –
CC1(C)CCC(c2ccc(NC3CCC(CNC(=O)[C@@H]4CNC(=O)N4)CC3)cc2)CC1 (single isomer, unassigned) [Compound 107A] | 0.1 to 100 nM | –
CC(C)(C)c1ccc(NC2CCC(NC(=O)C3CNC(=O)C3)CC2)cc1 (single isomer, unassigned) [Compound 114A, N-(4-((4-(tert-butyl)phenyl)amino)cyclohexyl)-5-oxopyrrolidine-3-carboxamide] | 100 to 1000 nM | –
CC(C)(C)c1ccc(NC2CCC(NC(=O)[C@H]3CNC(=O)N3)CC2)cc1 (single isomer, unassigned) [Compound 115A] | 100 to 1000 nM | –
O=C1NC[C@H](C(=O)NCC2CCC(Nc3ccc(C4CCCCC4)cc3)CC2)N1 (single isomer, unassigned) [Compound 117A] | 0.1 to 100 nM | –
CCCCOc1ccc(NC2CCC(N)CC2)cc1 (single isomer, unassigned) [Compound 142A, N1-(4-butoxyphenyl)cyclohexane-1,4-diamine] | 0.1 to 100 nM | –
CC(C)(C)c1ccc(NC2CCC(CNC(=O)[C@H]3CNC(=O)N3)CC2)cc1 (single isomer, unassigned) [Compound 143A] | 100 to 1000 nM | –
CC(C)(C)c1ccc(NC2CCC(CNC(=O)C3CNC(=O)C3)CC2)cc1 (single isomer, unassigned) [Compound 144A, N-((4-((4-(tert-butyl)phenyl)amino)cyclohexyl)methyl)-5-oxopyrrolidine-3-carboxamide] | 100 to 1000 nM | –
CC1(C)CCC(c2ccc(NC3CCC(C(N)=O)C3)cc2)CC1 (single isomer, unassigned) [Compound 146A, 3-((4-(4,4-dimethylcyclohexyl)phenyl)amino)cyclopentane-1-carboxamide] | 0.1 to 100 nM | –

Compound | EC50 (Homo sapiens, HT-1080, 20 h) | other results
CC1(C)CCC(c2ccc(NC3CCC(CNC(=O)[C@H]4CC(=O)NC(=O)N4)CC3)cc2)CC1 (single isomer, unassigned) [Compound 148A] | 0.1 to 100 nM | –
CC(C)(C)c1ccc(NC2CCCC(N)C2)cc1 (single isomer, unassigned) [Compound 149A, N1-(4-(tert-butyl)phenyl)cyclohexane-1,3-diamine] | 100 to 1000 nM | –
CC1(C)CCC(c2ccc(NC3CCC(NC(=O)[C@H]4CNC(=O)N4)CC3)cc2)CC1 (single isomer, unassigned) [Compound 156A] | 0.1 to 100 nM | –
CC(=O)NC1CCC(Nc2ccc(C3CCC(C)(C)CC3)cc2)CC1 (single isomer, unassigned) [Compound 157A, N-(4-((4-(4,4-dimethylcyclohexyl)phenyl)amino)cyclohexyl)acetamide] | 0.1 to 100 nM | –
CC1(C)CCC(c2ccc(NC3CCC(C(N)=O)CC3)cc2)CC1 (single isomer, unassigned) [Compound 159A, 4-((4-(4,4-dimethylcyclohexyl)phenyl)amino)cyclohexane-1-carboxamide] | – | EC50: 0.1 to 100 nM
CC1(C)CCC(c2ccc(NC3CCC(C(N)=O)CC3)cc2)CC1 (single isomer, unassigned) [Compound 159B, 4-((4-(4,4-dimethylcyclohexyl)phenyl)amino)cyclohexane-1-carboxamide] | – | EC50: 100 to 1000 nM
CN(C)C1CCC(Nc2ccc(C(C)(C)C)cc2)CC1 (single isomer, unassigned) [Compound 193A, N1-(4-(tert-butyl)phenyl)-N4,N4-dimethylcyclohexane-1,4-diamine] | 100 to 1000 nM | –
CC(C)(C)c1ccc(NC2CCC(CCN)CC2)cc1 (single isomer, unassigned) [Compound 200A, N-(4-(2-aminoethyl)cyclohexyl)-4-(tert-butyl)aniline] | 0.1 to 100 nM | –
CC1(C)CCC(c2ccc(NC3CCC(O)CC3)cc2)CC1 (single isomer, unassigned) [Compound 205A, 4-((4-(4,4-dimethylcyclohexyl)phenyl)amino)cyclohexan-1-ol] | 0.1 to 100 nM | –
CC(C)(C)c1ccc(NC2CCC(N)(CO)CC2)cc1 (single isomer, unassigned) [Compound 213A, (1-amino-4-((4-(tert-butyl)phenyl)amino)cyclohexyl)methanol] | 100 to 1000 nM | –
CC(=O)NC1CCC(Nc2ccc(C(C)(C)C)cc2)CC1 (single isomer, unassigned) [Compound 216A, N-(4-((4-(tert-butyl)phenyl)amino)cyclohexyl)acetamide] | 100 to 1000 nM | –
CC1(C)CCC(c2ccc(NC3CC(O)C3)cc2)CC1 (single isomer, unassigned) [Compound 228A, 3-((4-(4,4-dimethylcyclohexyl)phenyl)amino)cyclobutan-1-ol] | 0.1 to 100 nM | –
CC1(N)CCC(Nc2ccc(C(C)(C)C)cc2)CC1 (single isomer, unassigned) [Compound 231A, N1-(4-(tert-butyl)phenyl)-4-methylcyclohexane-1,4-diamine] | 0.1 to 100 nM | –
CCC(C)(C)c1ccc(NC2CCC(N)CC2)cc1 (single isomer, unassigned) [Compound 232A, N1-(4-(tert-pentyl)phenyl)cyclohexane-1,4-diamine] | – | EC50 (Homo sapiens): 0.1 to 100 nM
CC1CC(N)CCC1Nc1ccc(C(C)(C)C)cc1 (single isomer, unassigned) [Compound 252A, N1-(4-(tert-butyl)phenyl)-2-methylcyclohexane-1,4-diamine] | – | EC50: 100 to 1000 nM
CCC(C)c1ccc(NC2CCC(N)CC2)cc1 (single isomer, unassigned) [Compound 289A, 1-N-(4-(sec-butyl)phenyl)cyclohexane-1,4-diamine] | – | EC50: 0.1 to 100 nM
